One test has as its system STAT3/p65 complex. Kind of test: Co-immunoprecipitation of p65 and STAT3 in OSM-stimulated U343 cells. In kind it is cell-based, human. As to conditions: 100 ng/ml OSM, 20 μM compound, 6 h. The procedure: Cell lysates from 4 × 10^6 U343 cells/sample were obtained as described above. From each sample 200 μg of total protein were immunoprecipitated with 2 μg rabbit anti-p65 antibody (Santa Cruz Biotechnology; Heidelberg, Germany) or A. dest. (control) overnight at 4°C. Immunoprecipitated samples were incubated with 20 μl Dynabeads Protein G (Thermo Fisher Scientific, Karlsruhe, Germany) for 1 h at 4°C. Beads were washed 3 times with 1 ml PBS. Preparation of samples for SDS-PAGE analysis was done by means of dilution with SDS-PAGE sample buffer (Invitrogen, Darmstadt, Germany), followed by denaturation at 90°C for 10 min. SDS-PAGE analysis were performed as described before.
Normally, STAT3 is activated by phosphorylation at tyrosine 705, which induces dimerization, nuclear translocation and DNA binding. In contrast to other transcription factors like NF-κB, Creb and c/EBPb, STAT3 can not bind directly to the IL-6 promoter, because there are no STAT3 binding elements present. It is known from literature that several forms of interactions and cross talks between NF-κB and STAT3 exist. For instance, recent studies have shown a physical interaction between STAT3 and NF-κB [42, 43]. The importance of pSTAT3^S727 for protein interactions are under discussion. However, there is no information so far on the role of pSTAT3^S727 for the interaction with NF-κB. […]

In test [1] the target is T1, human recombinant prolyl endopeptidase (PREP) (Homo sapiens, UniProt P48147).
T1 construct: made in house
T1 sequence (P48147 1-710): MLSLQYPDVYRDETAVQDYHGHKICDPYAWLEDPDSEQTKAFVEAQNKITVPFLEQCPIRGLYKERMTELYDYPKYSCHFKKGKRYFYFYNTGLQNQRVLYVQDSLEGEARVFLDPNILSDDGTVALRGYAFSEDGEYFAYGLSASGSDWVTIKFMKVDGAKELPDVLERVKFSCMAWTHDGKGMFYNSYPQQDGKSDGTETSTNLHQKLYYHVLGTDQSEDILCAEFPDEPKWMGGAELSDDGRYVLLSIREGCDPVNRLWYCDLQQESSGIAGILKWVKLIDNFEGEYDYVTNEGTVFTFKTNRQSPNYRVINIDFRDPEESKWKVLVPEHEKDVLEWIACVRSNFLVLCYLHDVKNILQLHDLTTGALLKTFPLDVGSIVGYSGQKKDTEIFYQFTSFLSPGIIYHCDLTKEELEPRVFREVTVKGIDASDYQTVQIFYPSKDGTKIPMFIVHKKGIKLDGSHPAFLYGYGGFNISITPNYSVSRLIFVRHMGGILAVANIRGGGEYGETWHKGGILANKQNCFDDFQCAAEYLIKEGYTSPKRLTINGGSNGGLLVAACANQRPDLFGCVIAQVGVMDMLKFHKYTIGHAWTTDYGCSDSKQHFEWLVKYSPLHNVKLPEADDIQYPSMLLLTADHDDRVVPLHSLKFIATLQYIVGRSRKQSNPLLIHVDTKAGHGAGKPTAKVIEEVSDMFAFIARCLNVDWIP
The test can be described thus: PREP enzymatic activity assay (Z-Gly-Pro-pNA, photometric). In kind it is biochemical. The following applies: recombinant PREP, Z-Gly-Pro-pNA 62.5/125/250 μM, pH 7.6, 30°C, competitive fit. The procedure:
The activity of human recombinant prolyl endopeptidase (PREP) was determined photometrically using the substrate Z-Gly-Pro-pNA (Bachem, Weil am Rhein, Germany) usually at a concentration of 150 μM. As assay buffer 50 mM HEPES buffer pH 7.6, containing 200 mM NaCl, 1 mM EDTA, and 1 mM dithiothreitol was used. Release of pNA was monitored continuously at 405 nm for 15 min at 30°C in a 96-well plate reader (Spectrafluor, Tecan, Crailsheim, Germany). PREP activity was calculated from the slope of the time product curve with the help of a pNA standard. For determination of Ki values three different substrate concentrations (62.5 μM; 125 μM and 250 μM) and seven different inhibitor concentrations were analyzed. Substrate concentrations were selected to be at the Km value of Z-Gly-Pro-pNA (125 μM) as well as half and twice the Km. Data were fitted by non-linear regression to the competitive inhibitor equation (Graphit 5.0, Erithacus software).

The Ki is the dissociation constant of the complex between target and ligand, obtained from inhibition or displacement. `C[C@H](NC(=O)OCc1ccccc1)C(=O)N1CCC[C@H]1C(=O)c1nc2ccccc2s1` [HAK-2, Z-Ala-Pro-BTh]: the “p65-mediated STAT3 co-immunoprecipitation” value in the test on STAT3/p65 complex is recorded as “clear reduction”. Besides, the Ki in test [1] worked out at 0.038 nM.

The values are drawn from publication PMC3161871, “Heteroarylketones inhibit astroglial interleukin-6 expression via a STAT3/NF-κB signaling pathway” (Journal of Neuroinflammation, 2011).
